Results reported in ChEMBL document CHEMBL4428105, “Conformational and electrostatic analysis of SN1 donor analogue glycomimetic inhibitors of ST3Gal-I mammalian sialyltransferase” (Bioorg Med Chem, 2016).

Experiment: Inhibition of rat recombinant ST3Gal-1 using CMP-Neu5Ac as substrate after 20 mins by fluorescence based reverse phase HPLC analysis

| IC50 [mM] | Structure (SMILES) |
| --- | --- |
| 0.047 | CC(=O)N[C@H]1[C@H]([C@H](O)[C@H](O)CO)O[C@](CCP(=O)(O)OC[C@H]2O[C@@H](n3ccc(N)nc3=O)[C@H](O)[C@@H]2O)(C(=O)O)C[C@@H]1O |
| 3.3 | CC(=O)N[C@H]1[C@H]([C@H](O)[C@H](O)CO)O[C@](CCP(=O)(O)OC[C@H]2O[C@@H](n3ccc(N)nc3=O)[C@H](O)[C@@H]2O)(C(N)=O)C[C@@H]1O |
| 4.2 | CC(=O)N[C@H]1[C@H]([C@H](O)[C@H](O)CO)O[C@@](CO)(CCP(=O)(O)OC[C@H]2O[C@@H](n3ccc(N)nc3=O)[C@H](O)[C@@H]2O)C[C@@H]1O |
